Data on 1 compound can be found in publication PMC10349804, “Natural resveratrol analogs differentially target endometriotic cells into apoptosis pathways” (Scientific Reports, 2023).

One may read the IC50 as the concentration at which inhibition is half-maximal. Higher therefore signals lower potency. Usually IC10 stands for the concentration at which the effect reaches the 10% level. A high value points to weaker potency.

Type in all cases: cell-based, human
Series [1] relates to endometrial stromal T HESC cells. The series is described as follows: MTT reduction assay, cell viability. The following applies: T HESC cells, 48-h incubation, MTT. As to the method: (§1) The effect of resveratrol and its natural analogs on the viability of endometriotic epithelial 12Z cells and endometrial stromal T HESC cells was assessed using the MTT assay. Table 1 presents the IC10 and IC50 values (the inhibitor concentration required for 10% and 50% reduction in […]) obtained after 48-h incubation with the tested compounds. […] The cytotoxicity of resveratrol and pterostilbene to 12Z cells was not markedly different. T HESC and 12Z cells varied in susceptibility to the treatment with stilbenes tested, as evidenced by the cytotoxic doses shown in Table 1. […] Similarly, resveratrol evoked much weaker cytotoxic effects in T HESC cells than in 12Z cells. Polydatin at concentrations up to 400 µM was not cytotoxic to the T HESC cells, while at a dose of 86.76 µM, it induced the first cytotoxic symptoms in 12Z cells. […] The increased susceptibility of endometriotic 12Z cells than endometrial T HESC cells to resveratrol and its natural analogs was consistent in both assays (Fig. 1).
(§2) The immortalized human endometriotic epithelial cells (12Z), derived from peritoneal endometriosis lesions, were obtained from Applied Biological Materials Inc. (Richmond, Canada). The 12Z cells were cultured in Dulbecco's Modified Eagle Medium/Nutrient Mixture F-12 (DMEM/F12), containing 10% fetal bovine serum (FBS) and 50 mg/L gentamycin. American Type Culture Collection (ATCC, Manassas, VA, USA) was the source for human endometrial stromal cells immortalized by telomerase (T HESC, CRL-4003). The cells were maintained routinely in phenol red-free DMEM/F12 supplemented with 10% charcoal/dextran treated FBS, 1% ITS + 1, and 50 mg/L gentamycin, at 37 °C and 5% CO2. Both cell lines were negative for mycoplasma contamination; mycoplasma-free cells were confirmed repeatedly during the study.
(§3) Cells were seeded at a density of 0.15 × 10^5 cells/cm^2 in 6-well plates. The 24-h cell cultures were treated with resveratrol and its derivatives for 48 h under standard culture conditions. Camptothecin was applied as a reference apoptosis inducer; its final concentrations were set to 5 µM and 50 µM.
(§4) Cell viability and metabolic activity were determined using the MTT colorimetric assay, according to the protocol described in previous studies. Based on the obtained data, the dose–response curves were plotted, and inhibitory concentrations (IC) were calculated. In addition, cell proliferation was measured using the alamarBlue™ Cell Viability Reagent (Invitrogen, Carlsbad, CA, USA) according to the manufacturer's protocol. Fluorescence was measured using a Tecan M200 Infinite microplate reader (Tecan Group Ltd., Männedorf, Switzerland).
Background: Formazan colour is commonly taken as a measure of viable cells.

Series [2] concerns endometriotic epithelial 12Z cells. The series is described as follows: MTT reduction assay, cell viability. The method, then: as §1, §2, §3, §4
Series [3] relates to endometriotic 12Z cells. The series can be described thus: TUNEL assay of DNA fragmentation, flow cytometry. The following applies: 200 µM, 48 h. As to the method:
Cell death via apoptosis in 12Z cells after exposure to resveratrol and its natural derivatives was determined by detecting DNA fragmentation (Fig. 5). DNA degradation was correlated in a dose-dependent manner. […] Tunel-positive cell population in the 12Z cell culture treated with camptothecin was estimated at 32.5%, compared to 0.6% in the vehicle-treated control culture.
The detection of DNA fragmentation in 12Z cells was performed using the terminal deoxynucleotidyl-transferase-mediated dUTP nick end labeling (TUNEL) assay with In Situ Cell Death Detection Kit (Roche Diagnostics, Indianapolis, IN, USA). The test detects DNA breakage that is identified by terminal deoxynucleotidyl transferase. After treatment, the harvested cells were fixed in 4% paraformaldehyde and permeabilized in 0.1% Triton X-100. After washing in PBS, cells were subjected to TUNEL labeling with fluorescein-labeled dUTP and terminal deoxynucleotidyl transferase mixture. Cells were analyzed by flow cytometry using an Amnis™ FlowSight™ flow cytometer.
(In general: In flow cytometry, cells or beads pass a laser one at a time.)

The test system of series [4] is endometriotic 12Z cells. The series is described as follows: Cell cycle analysis by PI staining, flow cytometry. The following applies: 100 µM, 48 h. The method, then: To investigate whether resveratrol and its analogs have interfered with cell cycle progression in endometriotic 12Z cells, we analyzed the cell cycle distribution by flow cytometry. […] The largest subpopulation of apoptotic cells was found in the cell cultures treated with resveratrol and pterostilbene at the concentration of 100 µM (31.2 ± 8.0% and 33.1 ± 9.7%, respectively) and piceatannol at a concentration of 200 µM (45.1 ± 5. 6%).
Cell cycle progression was analyzed by flow cytometry using PI staining. After treatment, 12Z cells were collected, washed with PBS, and fixed in 70% ethanol. The cells were then washed, resuspended in PBS, and stained with 50 μg/ml PI in the presence of 100 μg/ml RNase A. Cell cycle distribution was analyzed using a FACSCanto flow cytometer (Becton Dickinson, San Jose, CA, USA). Data analysis was performed with the FACS Diva software (Becton Dickinson).

A further series deals with BAX gene. The series is described as follows: Real-time PCR, BAX mRNA expression in 12Z cells. The following applies: 100 µM, fold of control, normalized against β-actin. An excerpt: The effect of resveratrol and its natural analogs on the expression of pro- or antiapoptotic regulators, was examined by real-time PCR. […] BAX overexpression was also documented in 12Z cells exposed to resveratrol.
Figure 7 Effect of resveratrol and its analogs on the mRNA expression of BCL2, BCL2L1, BAX, FAS, CASP3, CASP8, and CASP9 genes in endometriotic 12Z cells, assessed by real-time PCR. Data were normalized against β-actin and expressed as relative mRNA expression (-fold of control). The values represent the means (n = 3) ± SD. Significant differences *p < 0.05; **p < 0.01; ***p < 0.001 compared to vehicle control.
Gene expression analysis was carried out according to the previously described protocol. TRI reagent was applied for total RNA isolation, synthesis cDNA Transcriptor First-Strand kit (Roche Diagnostics GmbH, Mannheim, Germany) for first-strand cDNA synthesis, and SYBR® Select Master Mix (Life Technologies, Carlsbad, CA, USA) for real-time PCR. The levels of transcripts were normalized using β-actin as an internal control, which was previously applied in 12Z cells. Relative mRNA expression was shown as fold change calculated using the 2^−ΔΔCt method compared with control cells.
(In general: Quantitative PCR measures a nucleic acid by following its amplification.)

Turning to `COc1cc(C=Cc2ccc(O)cc2)cc(OC)c1` [Pterostilbene, 3,5-dimethoxy-4′-hydroxystilbene], the IC50 in series [1] (Homo sapiens) came out at 145 ± 7.71 µM; in series [2] (Homo sapiens, 12Z cells, 48-h incubation), 73.9 ± 6 µM. The IC10 in series [1] is listed as 113.79 ± 5.11 ^## µM; in series [2] (12Z cells, 48-h incubation), 29.34 ± 4.46 µM. In series [2] (48 h), the “cytotoxicity in 12Z versus T HESC cells, comparing IC50 values” is on record as “almost twofold lower”. Moreover, in the series with endometriotic 12Z cells [3], the “DNA strand breaks (TUNEL-positive cells)” value is reported as 62.6%. Also, the “subpopulation of apoptotic cells (lower DNA content, subG1)” value in the series on endometriotic 12Z cells [4] came to 33.1 ± 9.7%. In addition, the “BAX mRNA expression increase” value with BAX gene was “approximately 16 fold”.
